Reference: patent US20240116985A1, “STAPLED PEPTIDES AND METHODS THEREOF” (priority 2020, published 2024)
Where two headings read alike, the source gives them in different places.

Legend:
[1] = molecular target: T1, full-length beta-Catenin (Uniprot ID P35222) (Homo sapiens, UniProt P35222); assay: Fluorescence polarization IC50 (beta-catenin / 5FAM-TCF4 10-53 competition); format: binding; conditions: fluorescence polarization
T1 construct: 10 nM full-length beta-Catenin (Uniprot ID P35222)
T1 sequence (P35222 1-781): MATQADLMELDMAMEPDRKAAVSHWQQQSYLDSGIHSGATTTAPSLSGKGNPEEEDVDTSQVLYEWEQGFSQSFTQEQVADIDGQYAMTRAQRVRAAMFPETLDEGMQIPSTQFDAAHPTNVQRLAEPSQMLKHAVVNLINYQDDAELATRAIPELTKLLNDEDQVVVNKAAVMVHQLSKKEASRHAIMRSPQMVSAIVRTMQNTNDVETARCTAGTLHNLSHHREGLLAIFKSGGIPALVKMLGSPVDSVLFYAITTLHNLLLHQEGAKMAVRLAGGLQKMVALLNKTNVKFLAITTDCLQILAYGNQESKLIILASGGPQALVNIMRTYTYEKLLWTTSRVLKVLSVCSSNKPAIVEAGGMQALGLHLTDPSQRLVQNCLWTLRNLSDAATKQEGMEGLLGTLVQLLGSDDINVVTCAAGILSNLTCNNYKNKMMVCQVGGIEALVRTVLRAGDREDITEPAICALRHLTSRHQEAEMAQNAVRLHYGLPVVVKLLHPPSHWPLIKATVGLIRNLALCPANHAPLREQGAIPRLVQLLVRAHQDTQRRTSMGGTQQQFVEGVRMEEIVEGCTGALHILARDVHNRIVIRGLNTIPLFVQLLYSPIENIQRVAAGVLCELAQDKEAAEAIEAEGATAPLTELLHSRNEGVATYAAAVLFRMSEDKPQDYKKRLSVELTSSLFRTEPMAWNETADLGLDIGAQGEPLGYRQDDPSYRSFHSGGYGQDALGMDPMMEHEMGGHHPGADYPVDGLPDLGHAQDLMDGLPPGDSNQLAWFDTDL

[2] = molecular target: T2, beta-catenin/TCF4 engagement (Homo sapiens, UniProt P35222); assay: Nano-BRET target engagement assay (B-cat-Halo & TCF4-Luc in HEK293 cells); format: cell-based
T2 construct: expressed in transfected cells; host or cells: HEK293
T2 sequence (P35222 1-781): T1 sequence (P35222 1-781)

[3] = absolute IC50, read-out: NanoBRET Abs IC50

Row | SMILES | IC50 ([1]; beta-Catenin FP IC50 (nM)) [nM] | IC50 ([2]; NanoBRET Abs IC50 (uM), absolute IC50) [µM] | IC50 ([1]; read-out: beta-Catenin FP IC50) [nM] | IC50 [2, 3] [µM] | IC50 ([2]; read-out: NanoBRET Abs IC50) [µM]
1 | CC(=O)N1CCC[C@]12CC=CCCCC1(CCCC=CCCCOC(=O)N3CC[C@@](C(=O)N[C@@H](Cc4ccccc4)C(=O)N[C@@H](Cc4csc5ccccc45)C(=O)N[C@@H](CC(=O)N4CCOCC4)C(N)=O)(C3)NC(=O)[C@H](CC(C)C)NC(=O)[C@H](Cc3ccccc3)NC(=O)[C@H](C)NC(=O)[C@H](CCCCNC(=O)c3ccccc3)NC(=O)[C@H](CCC(N)=O)NC(=O)[C@H](CC(=O)O)NC1=O)NC(=O)[C@H](CC1CCCCC1)NC(=O)[C@H](CC(N)=O)NC2=O (stereo partly drawn) [I-2523, Ac-PL3-Asn-Cha-B5-Asp-Gln-[Phc]Lys-Ala-Phe-Leu-PyrS2-Phe-BztA-MorphAsn-NH2] | 1730 | > 20 | – | – | –
2 | CC(=O)N1CCC[C@]12CC=CCCCC1(CCCC=CCCCOC(=O)N3CC[C@@](C(=O)N[C@@H](Cc4ccccc4C(F)(F)F)C(=O)N[C@@H](Cc4ccc(C)c(C)c4)C(=O)N[C@@H](CO)C(N)=O)(C3)NC(=O)[C@H](CC(C)C)NC(=O)[C@H](Cc3ccccc3)NC(=O)[C@H](C)NC(=O)[C@H](C)NC(=O)[C@H](Cc3cccc(C(=O)O)c3)NC(=O)[C@H](CC(=O)O)NC1=O)NC(=O)[C@H](CC(C)(C)C)NC(=O)[C@H](CC(=O)O)NC2=O (stereo partly drawn) [I-2293, Ac-PL3-Asp-Npg-B5-Asp-3COOHF-Ala-Ala-Phe-Leu-PyrS2-2F3MeF-34MeF-Ser-NH2] | – | – | 15 | 5.7 | –
3 | CC(=O)N1CCC[C@]12CC=CCCCC1(CCCC=CCCCOC(=O)N3CC[C@@](C(=O)N[C@@H](Cc4ccsc4)C(=O)N[C@@H](Cc4csc5ccccc45)C(=O)N[C@@H](CCO)C(N)=O)(C3)NC(=O)[C@H](CC(C)C)NC(=O)[C@H](Cc3ccccc3)NC(=O)[C@H](C)NC(=O)[C@H](C)NC(=O)[C@H](CC(=O)O)NC(=O)[C@H](CC(=O)O)NC1=O)NC(=O)[C@H](CC1CCCCC1)NC(=O)[C@H](CC(=O)O)NC2=O (stereo partly drawn) [I-1520, Ac-PL3-Asp-Cha-B5-Asp-Asp-Ala-Ala-Phe-Leu-PyrS2-3Thi-BztA-Hse-NH2] | – | – | 11 | 17.4 | –
4 | CC(=O)N1CCC[C@]12CCCCCCC1(CCCCCCCCOC(=O)N3CC[C@@](C(=O)N[C@@H](Cc4ccccc4C(F)(F)F)C(=O)N[C@@H](Cc4csc5ccccc45)C(=O)N[C@@H](CCC(N)=O)C(N)=O)(C3)NC(=O)[C@H](CC(C)C)NC(=O)[C@H](Cc3ccccc3)NC(=O)[C@H](C)NC(=O)[C@H](C)NC(=O)[C@H](CN(CC(=O)O)CC(F)(F)F)NC(=O)[C@H](CC(=O)O)NC1=O)NC(=O)[C@H](CC(C)(C)C)NC(=O)[C@H](CC(=O)O)NC2=O (stereo partly drawn) [I-1714, Ac-PL3-Asp-Npg-B5-Asp-TfeGA-Ala-Ala-Phe-Leu-PyrS2-2F3MeF-BztA-Gln-NH2] | – | – | 372 | 28.6 | –
5 | CC(=O)N1CCC[C@]12CC=CCCCC1(CCCC=CCCCOC(=O)N3CC[C@@](C(=O)N[C@@H](Cc4ccsc4)C(=O)N[C@@H](Cc4csc5ccccc45)C(=O)N[C@@H](CCC(N)=O)C(N)=O)(C3)NC(=O)[C@H](Cn3cc(CN4CCOCC4)nn3)NC(=O)[C@H](Cc3ccccc3)NC(=O)[C@H](C)NC(=O)[C@H](C)NC(=O)[C@H](CN(CC(=O)O)CC(F)(F)F)NC(=O)[C@H](CC(=O)O)NC1=O)NC(=O)[C@H](CC(C)(C)C)NC(=O)[C@H](CC(=O)O)NC2=O (stereo partly drawn) [I-1866, Ac-PL3-Asp-Npg-B5-Asp-TfeGA-Ala-Ala-Phe-[MorphCH2]TriAzDap-PyrS2-3Thi-BztA-Gln-NH2] | – | – | 26 | – | > 20
6 | CC(=O)N1CCC[C@]12CC=CCCCC1(CCCC=CCCCOC(=O)N3CC[C@@](C(=O)N[C@@H](Cc4ccsc4)C(=O)N[C@@H](Cc4csc5ccccc45)C(=O)N[C@@H](CCC(N)=O)C(N)=O)(C3)NC(=O)[C@H](CC(N)=O)NC(=O)[C@H](Cc3ccccc3)NC(=O)[C@H](C)NC(=O)[C@H](C)NC(=O)[C@H](CCCNC(=N)N)NC(=O)[C@H](CC(=O)O)NC1=O)NC(=O)[C@H](CC(C)(C)C)NC(=O)[C@H](CC(=O)O)NC2=O (stereo partly drawn) [I-1890, Ac-PL3-Asp-Npg-B5-Asp-Arg-Ala-Ala-Phe-Asn-PyrS2-3Thi-BztA-Gln-NH2] | – | – | 31 | – | > 20
7 | CCCC[C@@H]1NC(=O)[C@H](Cc2ccccc2)NC(=O)[C@H](C)NC(=O)C(C)(C)NC(=O)[C@H](Cc2cccc(C(=O)O)c2)NC(=O)[C@H](CC(=O)O)NC(=O)C2(CCCC=CCCCOC(=O)N3CC[C@@](C(=O)N[C@@H](Cc4ccsc4)C(=O)N[C@@H](Cc4csc5ccccc45)C(=O)N[C@@H](CCC(=O)N(CCOC)CCOC)C(N)=O)(C3)NC1=O)CCCC=CC[C@]1(CCCN1C(C)=O)C(=O)N[C@@H](CC(=O)O)C(=O)N[C@@H](CC(C)(C)C)C(=O)N2 (stereo partly drawn) [I-2554, Ac-PL3-Asp-Npg-B5-Asp-3COOHF-Aib-Ala-Phe-nLeu-PyrS2-3Thi-BztA-[bismethoxyethylamine]GlnR-NH2] | – | – | 8 | 3.3 | –
8 | CC(=O)N1CCC[C@]12CC=CCCCC1(CCCC=CCCCOC(=O)N3CC[C@@](C(=O)N[C@@H](Cc4ccsc4)C(=O)N[C@@H](Cc4csc5ccccc45)C(=O)N[C@@H](CCC(N)=O)C(N)=O)(C3)NC(=O)[C@H](CCO)NC(=O)[C@H](Cc3ccccc3)NC(=O)[C@H](C)NC(=O)[C@H](C)NC(=O)[C@H](CCc3ccc(O)cc3)NC(=O)[C@H](CC(=O)O)NC1=O)NC(=O)[C@H](CC(C)(C)C)NC(=O)[C@H](CC(=O)O)NC2=O (stereo partly drawn) [I-1786, Ac-PL3-Asp-Npg-B5-Asp-hTyr-Ala-Ala-Phe-Hse-PyrS2-3Thi-BztA-Gln-NH2] | – | – | 42 | > 20 | –
9 | CC(=O)N1CCC[C@]12CC=CCCCC1(CCCC=CCCCOC(=O)N3CC[C@@](C(=O)N[C@@H](Cc4ccsc4)C(=O)N[C@@H](Cc4csc5ccccc45)C(=O)N[C@@H](CCC(N)=O)C(N)=O)(C3)NC(=O)[C@H]([C@@H](C)O)NC(=O)[C@H](Cc3ccccc3)NC(=O)[C@H](C)NC(=O)C(C)(C)NC(=O)[C@H]([C@@H](C)O)NC(=O)[C@H](CC(N)=O)NC1=O)NC(=O)[C@H](CC(C)(C)C)NC(=O)[C@H](CC(=O)O)NC2=O (stereo partly drawn) [I-2409, Ac-PL3-Asp-Npg-B5-Asn-Thr-Aib-Ala-Phe-Thr-PyrS2-3Thi-BztA-Gln-NH2] | – | – | 397 | 50 | –
10 | CC(=O)N1CCC[C@]12CC=CCCCC1(CCCC=CCCCOC(=O)N3CC[C@@](C(=O)N[C@@H](Cc4ccsc4)C(=O)N[C@@H](Cc4csc5ccccc45)C(=O)N[C@@H](CCC(N)=O)C(N)=O)(C3)NC(=O)[C@H](CC(C)C)NC(=O)[C@H](Cc3cccc(C(=O)O)c3)NC(=O)[C@H](C)NC(=O)[C@H](C)NC(=O)[C@H](Cc3ccc(O)cc3)NC(=O)[C@H](CC(=O)O)NC1=O)NC(=O)[C@H](CC(C)(C)C)NC(=O)[C@H](CC(=O)O)NC2=O (stereo partly drawn) [I-2126, Ac-PL3-Asp-Npg-B5-Asp-Tyr-Ala-Ala-3COOHF-Leu-PyrS2-3Thi-BztA-Gln-NH2] | – | – | 68 | – | 29.5
11 | CC(=O)N1CCC[C@]12CC=CCCCC1(CCCC=CCCCOC(=O)N3CC[C@@](C(=O)N[C@@H](Cc4ccsc4)C(=O)N[C@@H](Cc4csc5ccccc45)C(=O)N[C@@H](CCC(N)=O)C(N)=O)(C3)NC(=O)[C@H](CC(C)C)NC(=O)[C@H](Cc3ccccc3)NC(=O)[C@H](C)NC(=O)[C@H](C)NC(=O)[C@H](CCn3cc(CC(=O)O)nn3)NC(=O)[C@H](CC(=O)O)NC1=O)NC(=O)[C@H](CC(C)(C)C)NC(=O)[C@H](CC(=O)O)NC2=O (stereo partly drawn) [I-2078, Ac-PL3-Asp-Npg-B5-Asp-[CH2CO2H]TriAzDab-Ala-Ala-Phe-Leu-PyrS2-3Thi-BztA-Gln-NH2] | – | – | 5 | – | 11.7
12 | CC(=O)N1CCC[C@]12CC=CCCCC1(CCCC=CCCCOC(=O)N3CC[C@@](C(=O)N[C@@H](Cc4ccccc4C(F)(F)F)C(=O)N[C@@H](Cc4ccc(Cl)cc4)C(=O)N[C@@H](CO)C(N)=O)(C3)NC(=O)[C@H](CC(C)C)NC(=O)[C@H](Cc3ccccc3)NC(=O)[C@H](C)NC(=O)[C@H](C)NC(=O)[C@H](Cc3cccc(C(=O)O)c3)NC(=O)[C@H](CC(=O)O)NC1=O)NC(=O)[C@H](CC(C)(C)C)NC(=O)[C@H](CC(=O)O)NC2=O (stereo partly drawn) [I-2222, Ac-PL3-Asp-Npg-B5-Asp-3COOHF-Ala-Ala-Phe-Leu-PyrS2-2F3MeF-4C1F-Ser-NH2] | – | – | 84 | 11.7 | –
13 | CC(=O)NCCCC[C@@H]1NC(=O)[C@H](Cc2ccccc2)NC(=O)[C@H](C)NC(=O)[C@H](C)NC(=O)[C@H](Cc2cccc(C(=O)O)c2)NC(=O)[C@H](CC(=O)O)NC(=O)C2(CCCC=CCCCOC(=O)N3CC[C@@](C(=O)N[C@@H](Cc4ccccc4C(F)(F)F)C(=O)N[C@@H](Cc4csc5ccccc45)C(=O)N[C@@H](CCC(=O)N4CCOCC4)C(N)=O)(C3)NC1=O)CCCC=CC[C@]1(CCCN1C(C)=O)C(=O)N[C@@H](CC(=O)O)C(=O)N[C@@H](CC(C)(C)C)C(=O)N2 (stereo partly drawn) [I-2549, Ac-PL3-Asp-Npg-B5-Asp-3COOHF-Ala-Ala-Phe-AcLys-PyrS2-2F3MeF-BztA-MorphGln-NH2] | – | – | 13 | 2.5 | –
